The text below walks through data of PMC11487760, “Cross-Species Applications of Peptide Substrate Reporters to Quantitative Measurements of Kinase Activity” (ACS Measurement Science Au, 2024).

Non-standard residues stand in square brackets, D forms with d. Residues, ends and D or L forms follow the SMILES beside them. *: point of attachment. 5FAM = O=C1OC2(c3ccc(O)cc3Oc3cc(O)ccc32)c2ccc(C(=O)*)cc21; 6FAM = O=C1OC2(c3ccc(O)cc3Oc3cc(O)ccc32)c2cc(C(=O)*)ccc21; NMeR = CN[C@@H](CCCNC(=N)N)C(=O)O; NMeA = CN[C@@H](C)C(=O)O

A short description of data set [1]: Degradation assay in freeze-thaw lysates, D. discoideum. To be noted: 10 μM reporter, 25 °C, CE-LIF. In kind it is in vitro ADME. The protocol: (§1) Degradation assays were conducted as described previously.[38] Briefly, aliquots of vegetative cells were washed twice, resuspended in ice-cold phosphate buffered saline at a density of 2 × 10^8 cells/mL and lysed by three freeze–thaw cycles using liquid nitrogen. The resulting lysate was clarified by 5 min centrifugation at 15,000 × g, and the supernatant was stored at −80 °C. The total protein concentration was determined using a fluorescamine assay with a bovine serum albumin (BSA) calibration curve.[39] Briefly, three parts diluted lysate (or BSA standard) in 30 mM borate buffer (pH 9) and one part 3 mg/mL fluorescamine in acetone were incubated for 5 min in the dark at room temperature. The fluorescence at 475 nm was then measured using 390 nm excitation. Based on this assay, the lysate was diluted to a concentration of 3 mg/mL in phosphate buffered saline. The degradation reaction was run at 25 °C and initiated by addition of 10 μM reporter to the diluted lysate. At fixed time points, aliquots were removed, and the reaction was stopped by incubation for 4 min at 95 °C.
(§2) To study degradation kinetics, we fit the data for each full-length peptide to a first-order reaction model and determined the half-life for each peptide for three biological replicates (Figure 5b-d, Table 3). Degradation rates and half-lives varied widely between organisms and peptides; however, some general trends were apparent. For all peptides, degradation was much faster in T. thermophila than in D. discoideum. T. thermophila is known to produce and secrete cysteine proteases and is a large ([…]), fast-growing cell. […] Further characterization of protease expression in these strains may be helpful identifying the enzyme(s) primarily responsible for degradation of these reporters.

Data set [2] can be described thus: Degradation assay in freeze-thaw lysates, T. thermophila B2086.2. The format is in vitro ADME. To be noted: freeze–thaw lysate of vegetative T. thermophila B2086.2 cells, 3 mg/mL total protein in PBS, no protease inhibitors, 10 μM reporter, 25 °C, CE-LIF, first-order fit, ± SD, 3 biological replicates. The procedure:
as §1, §2

The test system of data set [3] is PKBA. Particulars: read-out: EC50 for PKBA in D. discoideum; cited from earlier work. The procedure: (§3) Next, we tested pharmacological treatment of D. discoideum. We treated cells for 1 min with 15 μM LY294002, a PI3K inhibitor. LY294002 has been shown previously to reduce PKBA activity in D. discoideum.[53],[55]−[57] […] The magnitude of this effect was quite similar for all three peptides; percent phosphorylation of cAMP-stimulated cells decreased to 33–34% of the untreated phosphorylation levels upon LY294002 treatment.

Data set [4] concerns PKBA. As to the kind of experiment: Effect of LY294002 treatment on reporter phosphorylation in cAMP-stimulated D. discoideum. The format is cell-based. To be noted: 15 μM LY294002 for 1 min before cAMP stimulation; lysed 15 s after stimulation; 1 h social development; all three reporters; n = 3 biological replicates. The protocol:
as §3

For data set [5], the system named is PHK5. As to the kind of experiment: Phosphorylation of peptide substrate reporters in T. thermophila lysates (CE-LIF). The format is biochemical. Particulars: lysates from T. thermophila 2 h into conjugation, 20–30 s after 2% proteose peptone; 5 μM reporter, 2 mM ATP, room temperature, lysis buffer with phosphatase and protease inhibitors; reactions with ≤10% total phosphorylation; MEKC CE-LIF. The protocol: For T. thermophila lysates, mating was induced by mixing equal cell numbers of B2086.2 and CU428.2 strains that had been starved for 16 h at 30 °C in unshaken Dryl’s buffer (2 mM phosphate buffer, 2 mM citrate, 1.5 mM CaCl2). Two hours after cells were mixed, microscopy was used to confirm that >75% of cells were paired. Samples were then lysed with an equal volume of ice-cold 2× lysis buffer, before and 30 s after addition of 20% proteose peptone stock to a final concentration of 2% or other stimuli as noted.
(§4) In addition to confirming that all three reporters were phosphorylated in lysates from both cell types, we also characterized the kinetics of the phosphorylation, which varied substantially between organisms. Using reactions with ≤10% total phosphorylation, we determined the phosphorylation rate for lysates from stimulated cells in units of zeptomoles of phosphorylated product per picogram of total protein per second (zmol pg^–1 s^–1; Table 2). […] For D. discoideum, B-5/I was the next most preferred substrate. This kinetic trend is similar to that observed in human cells. Crosstide and a truncated version of B-5/I have similar values for Vmax with human Akt1, but the KM value is about 5-fold lower for Crosstide.[25] The value of Vmax has not been determined for VI–B with Akt1, but its phosphorylation rate is known to be slower than that of B-5/I.[13]

In data set [6] the test system is PKBA. The data set is described as follows: Phosphorylation of peptide substrate reporters in D. discoideum lysates (CE-LIF). In kind it is biochemical. Particulars: lysates from chemotaxis-competent D. discoideum 20–30 s after 1 μM cAMP stimulation; 5 μM reporter, 2 mM ATP, 0.4–0.6 mg/mL protein, room temperature, lysis buffer with phosphatase and protease inhibitors; reactions with ≤10% total phosphorylation; MEKC CE-LIF.
Description: as §4

The subject of data set [7] is pancreatic cancer cell lines. Particulars: intact pancreatic cancer cell lines; cited from earlier work. The procedure:
(§5) These rates are much higher than rates obtained in intact human prostate cancer cells (LNCaP, 0.04 zmol pg^–1 s^–1)[6] and pancreatic cancer cell lines (0.02–0.1 zmol pg^–1 s^–1)[28],[50] with the same reporter. Our assays were conducted in lysates containing phosphatase inhibitors, which will increase the apparent activity of PKB by removing the effects of any opposing phosphatases. Additionally, higher phosphorylation rates may arise from differing expression levels of PKB ...

Data set [8] relates to intact human prostate cancer cells (LNCaP). Particulars: cited from earlier work. The procedure:
as §5

A short description of data set [9]: Degradation assay in freeze-thaw lysates, T. thermophila CU428.2. In kind it is in vitro ADME. Particulars: T. thermophila strain CU428.2 freeze–thaw lysate, based on the first 5 min of each reaction; 3 mg/mL protein, 10 μM reporter, 25 °C, CE-LIF. The protocol:
as §1
To study degradation kinetics, we fit the data for each full-length peptide to a first-order reaction model and determined the half-life for each peptide for three biological replicates (Figure 5b-d, Table 3). […]

The subject of data set [10] is PHK5. The format is cell-based. Particulars: mating T. thermophila treated 20 s with 1 μM stimulus (2% for proteose peptone) prior to lysis; 15 min incubation of Crosstide in lysate; n = 2–3 biological replicates. The protocol: For T. thermophila lysates, mating was induced by mixing equal cell numbers of B2086.2 and CU428.2 strains that had been starved for 16 h at 30 °C in unshaken Dryl’s buffer (2 mM phosphate buffer, 2 mM citrate, 1.5 mM CaCl2). […] Samples were then lysed with an equal volume of ice-cold 2× lysis buffer, before and 30 s after addition of 20% proteose peptone stock to a final concentration of 2% or other stimuli as noted.
The protein concentrations of lysates were determined using the fluorescamine assay described above, and lysates were diluted to the same final concentration (0.4–0.6 mg/mL) in 1× lysis buffer. […] Phosphorylation reactions were conducted in kinase buffer (25 mM MOPS, pH 7.4, 20 mM magnesium chloride, 25 mM glycerophosphate, 1 mM DTT).[41] The peptide substrate reporter was added to a final concentration of 5 μM, and the reaction was started by addition of a final concentration of 2 mM ATP. The reaction was run at room temperature and stopped by the addition of CE run buffer. Negative control experiments were performed by substituting deionized water for ATP or denaturing the lysate with heat before the addition of peptide.
Samples were analyzed using micellar electrokinetic chromatography (MEKC) in a PA-800 Plus capillary electrophoresis instrument (Beckman Coulter). […] The same buffer was used for phosphorylation assays of Crosstide. […] For all VI–B assays, the run buffer was 100 mM borate, 15 mM SDS, pH 11.4. The capillary was 50 μm diameter bare silica, 21 cm effective length with an applied potential of 400 V/cm. […] Peak integration was performed using 32 Karat (v. 10.1) software.
Cells were treated with a final concentration of 1 μM stimulus for 20 s prior to lysis.

The mark [11] stands for this setting: freeze–thaw lysate of vegetative D. discoideum cells, 3 mg/mL total protein in PBS, no protease inhibitors, first-order fit, ± SD, 3 biological replicates.

By half-life is commonly meant the time needed for the level to fall by half in the phase considered. Read a low half-life as rapid decline. As for `C[C@H](NC(=O)[C@H](C)NC(=O)[C@H](CCCNC(=N)N)NC(=O)[C@@H]1CCCN1C(=O)[C@H](CCCNC(=N)N)NC(=O)CNC(=O)c1ccc2c(c1)C1(OC2=O)c2ccc(O)cc2Oc2cc(O)ccc21)C(=O)N[C@H](C(=O)N[C@@H](Cc1ccccc1)C(=O)N[C@@H](C)C(=O)N[C@@H](CCC(=O)O)C(=O)NCC(N)=O)[C@@H](C)O` [B-5/I] (6FAM-GRPRAATFAEG-NH2), the half-life at 10 μM in data set [1] (setting [11]) is 51 ± 4 min; in data set [2], 12 ± 4 min.
With `C[C@H](NC(=O)[C@H](Cc1ccccc1)NC(=O)[C@H](CO)NC(=O)[C@H](CO)NC(=O)[C@@H](NC(=O)[C@H](CCCNC(=N)N)NC(=O)[C@@H]1CCCN1C(=O)[C@H](CCCNC(=N)N)NC(=O)CNC(=O)c1ccc2c(c1)C(=O)OC21c2ccc(O)cc2Oc2cc(O)ccc21)[C@@H](C)O)C(=O)N[C@@H](CCC(=O)O)C(=O)NCC(=O)O` [Crosstide] (5FAM-GRPRTSSFAEG-OH), the half-life at 10 μM in data set [1] (setting [11]) is 117 ± 10 min; in [2], 8 ± 1 min.
A word on the EC50: it is the concentration needed to bring the measured effect to its halfway point. In the case of `O=c1cc(N2CCOCC2)oc2c(-c3ccccc3)cccc12` [LY294002], the EC50 in data set [3] was 15 µM. In addition, the “percent phosphorylation of cAMP-stimulated cells, as % of the untreated phosphorylation levels” value in [4] is listed as 33–34%.
On to `C[C@H](NC(=O)[C@H](CCCNC(=N)N)N(C)C(=O)[C@@H]1CCCN1C(=O)[C@H](CCCNC(=N)N)NC(=O)CNC(=O)c1ccc2c(c1)C1(OC2=O)c2ccc(O)cc2Oc2cc(O)ccc21)C(=O)N[C@@H](Cc1ccccc1)C(=O)N[C@H](C(=O)N[C@@H](Cc1ccccc1)C(=O)N(C)[C@@H](C)C(N)=O)[C@@H](C)O` [VI–B] (6FAM-GRP[NMeR]AFTF[NMeA]-NH2), for which the phosphorylation rate is given as 4.1 ± 0.9 zmol pg^–1 s^–1 in [5], 1.4 ± 0.2 zmol pg^–1 s^–1 in data set [6], 0.02–0.1 zmol pg^–1 s^–1 in [7] and 0.04 zmol pg^–1 s^–1 in data set [8]. Also, in data set [1] (D. discoideum freeze–thaw lysate, based on the first 15 min of each reaction, pmol peptide per mg total protein per second, 3 mg/mL protein), the “initial rate of fragmentation in lysates” value came to 0.3 ± 0.1 pmol mg^–1 s^–1. In addition, the half-life in data set [1] (cells or culture medium, freeze–thaw lysate of vegetative D. discoideum cells, 3 mg/mL total protein in PBS, no protease inhibitors, first-order fit, ± SD, 3 biological replicates) amounted to 184 ± 65 min; in data set [2] (cells or culture medium), 22 ± 4 min. Moreover, the “initial degradation rate in lysates” value in data set [9] was determined as 5.1 ± 0.3 pmol mg^–1 s^–1.
`Nc1nc2c(ncn2[C@@H]2O[C@@H]3COP(=O)(O)O[C@H]3[C@H]2O)c(=O)[nH]1` [cGMP]: in data set [10], the “change in phosphorylation activity toward Crosstide after stimulus” value (“change” for short) is recorded as “None of these stimuli resulted in increased phosphorylation activity”.
Turning to `NCCc1c[nH]cn1` [histamine], the “change” value in data set [10] is recorded as “None of these stimuli resulted in increased phosphorylation activity”.
With `NCCc1c[nH]c2ccc(O)cc12` [serotonin], in data set [10], the “change” value is recorded as “None of these stimuli resulted in increased phosphorylation activity”.
Regarding concavalin A, in [10], the “change” value was “None of these stimuli resulted in increased phosphorylation activity”.
In the case of insulin, the “change” value in data set [10] is “None of these stimuli resulted in increased phosphorylation activity”.
